Patent publication US5508387A, “Selectin binding glycopeptides” (Glycomed Incorporated, priority 1993, dated 1996)

Tests used:
[1] = tested on: P-selectin; assay: ELISA assay: inhibition of P-selectin-IgG chimera binding to 2,3 sLex glycolipid; conditions: FIG. 5; tested at several concentrations; results expressed as percent of control binding
Procedure: (§1) An ELISA assay (Foxall et al, The Journal of Cell Biology (1992) 117:895) is preferably used which consists of the following three steps:
(§2) 1. 2,3 sLex glycolipid is transferred into microtitre wells as solutions and then evaporated off. Excess, which remained unattached, is washed off with water. The wells are then blocked with a blocking agent, preferably BSA.
(§3) 2. Preparation of "multivalent" receptor of the Selectin-IgG chimera is carried out by combining the respective chimera with biotin labelled goat F(ab')2 anti-human IgG (Fc specific) and streptavidin-alkaline phosphatase diluted appropriately and incubated. This allows the soluble multivalent receptor complex to form.
(§4) 3. Potential inhibitors such as glyco-amino acids or glycopeptides of structural formula I are allowed to react with the soluble receptor. This solution is then placed in the microtitre wells that are prepared in step 1. The plate is incubated to allow the soluble receptor to bind to its natural ligand. In the presence of a strong inhibitor only a few of the receptors should be free to bind to the microtitre plate coated with the natural ligand.
(§5) The positive control is the signal produced by the soluble receptor when it is allowed to react with the natural ligand in the microtitre wells in the absence of any inhibitor. This is considered 100% binding. The signal produced by the receptor that is previously treated with an inhibitor (recorded as O.D.), is divided by the signal produced by the positive control and multiplied by 100 to calculate the % receptor bound to the well in the presence of the inhibitor. The reciprocal of this is the % inhibition.
(§6) The glyco-amino acids or glycopeptides of structural formula I can be tested for their ability to bind to a selectin receptor and/or block the binding site of the receptor and thereby prevent a natural ligand from binding to the selectin receptor (Foxall et al, The Journal of Cell Biology (1992) 117:895). A generalized procedure for testing the ligands is given below.
(§7) An ELISA assay is preferably used which consisted of the following three steps:
1. 2,3 sLex glycolipid (25 picomol/well) was transferred into microtitre wells as solutions and evaporated off. Excess, which remained unattached, was washed off with water. […]
as §5, with “was” for “is”, “This is considered 100% binding.” left out, “The reciprocal of this is the % inhibition.” left out

[2] = tested on: L-selectin; assay: ELISA assay: inhibition of L-selectin-IgG chimera binding to 2,3 sLex glycolipid; conditions: FIG. 4; tested at several concentrations; results expressed as percent of control binding
Procedure: as §1, §2, §3, §4, §5, §6, §7
1. 2,3 sLex glycolipid (25 picomol/well) was transferred into microtitre wells as solutions and evaporated off. Excess, which remained unattached, was washed off with water. The wells were blocked with 5% BSA at room temperature for an hour and washed with PBS containing 1 mM calcium.
2. Preparation of "multivalent" receptor of the Selectin-IgG chimera was carried out by combining the respective chimera (1 μg/mL) with biotin labelled goat F(ab')2 anti-human IgG (Fc specific) and streptavidin-alkaline phosphatase diluted 1:1000 in 1% BSA-PBS (1 mM calcium) and incubating at 37° C. for 15 min. This allowed the soluble multivalent receptor complex to form.
3. Potential inhibitors such as glyco-amino acids or glycopeptides of structural formula I were allowed to react with the soluble receptor at 37° C. for 45 min. This test assumes that optimal binding, between the soluble phase receptor complex and the inhibitor (non-natural ligand), would occur within this time frame. This solution was placed in the microtitre wells that were prepared in step 1. The plate was incubated at 37° C. for 45 minutes to allow the soluble receptor to bind to its natural ligand. In the presence of a strong inhibitor only a few receptors would be free to bind to the microtitre plate coated with the natural ligand.
as §5, with “control was” for “control is”, “it was” for “it is”, “This was” for “This is”, “that was” for “that is”, “O.D.), was” for “O.D.), is”

[3] = tested on: lymphocyte binding to high endothelial venules (HEV), L-selectin mediated; assay: Stamper-Woodruff assay (lymphocyte adhesion to HEV of lymph node frozen sections); type: cell-based, female Swiss Webster mice; female Sprague-Dawley rats; conditions: FIG. 7, percent of relative binding
Text: (§8) Lymphocytes are known to circulate from blood to lymphoid tissues via high endothelial venules (HEV) on lymph nodes. L-selectin is expressed on the surface of lymphocytes and is believed to mediate lymphocyte adhesion by binding to the natural ligand on the HEV. The glyco-amino acids or glycopeptides of structural formula I can be tested for their ability to bind to a selectin receptor and/or block the binding site of the receptor and thereby prevent a natural ligand from binding to the selectin receptor. See, for example, Stoolman et al, The Journal of Cell Biology (1983) 96:722. The Stamper-Woodruff assay is well known in the an, and generally consists of the following three steps:
1. Preparation of the lymphocytes:
(a) The lymphocytes are obtained from the mesenteric nodes of female Swiss Webster mice, by gently teasing tissues with phosphate buffered saline (PBS). The cells are obtained by gently squeezing the cells from the tissues. The cells are dispersed and the cell clumps are removed. The single cell suspension is suspended, washed, and kept on ice until use (less than two hours). Cells are counted and prepared at an appropriate concentration.
(b) The superficial and deep cervical lymph nodes of female Sprague-Dawley rats are dissected and prepared in the same way as the mice.
2. Preparation of frozen sections:
Superficial or deep cervical lymph nodes are dissected from the animals, snap frozen, and immediately placed in a cryostat for sectioning. 10-μm sections are prepared and transferred onto glass slides, and air dried.
3. Potential inhibitors are added to lymphocyte suspensions 10-30 minutes before the start of the binding assay, and unless otherwise stated, are present throughout the subsequent binding incubation.
The frozen sections are used in the order in which they are cut. Aliquots of untreated lymphocytes (positive control), suspensions containing fucoidin (negative control) and suspensions containing potential inhibitors are layered on the sections in an arbitrary sequence such that the control and each test substance are represented once in a series.
The binding of the lymphocytes to the HEV is easily distinguishable from binding elsewhere by virtue of the characteristic picture of tightly packed, darkly stained lymphocytes overlaying the histologically distinctive HEV. The number of adherent lymphocytes on each HEV are counted and the average number of adherent cells per HEV (cells bound per HEV) is calculated. The results are expressed as a percent of relative binding, wherein the positive control is considered to be 100% binding.
as §8, with “were” for “can be”, “art,” for “an,”
(a) The lymphocytes were obtained from the mesenteric nodes of female Swiss Webster mice (23-27 g), by gently teasing tissues by phosphate buffered saline (PBS). […] Cells were counted and prepared at 3-4×10^7 cells/ml. […]

[4] = tested on: P-selectin; assay: P-selectin/HL-60 assay; type: cell-based; conditions: FIG. 6; HL-60 cells; tested at several concentrations
Text: The glyco-amino acids or glycopeptides of structural formula I can be tested for their ability to inhibit P-selectin binding to its native ligand. A generalized procedure for testing the ligands is given below. A P-selectin/HL-60 assay is preferably used which consists of the following steps:
1. HL-60 cells are harvested and pelleted by centrifugation. The cells are washed, counted and the volume adjusted appropriately.
2. PVC microtiter plate is blocked with a blocking agent, and washed with TBS-BSA.
3. P-selectin is diluted appropriately in BSA-TBS Ca containing goat F(ab')2 anti-human IgG (Fc spec) and streptavidin-alkaline phosphatase. Positive controls have DMF added to equal the highest concentration of DMF in the sample compounds.
4. Ligands are incubated at room temperature with brisk rotation. […]
Para-nitrophenylphosphonate is added to the plate. […] Aliqouts from each well is transferred to a polystyrene microtiter plate and O.D. read at 405 nm. […] The signal produced by the receptor that is previously treated with an inhibitor (recorded as O.D.), is divided by the signal produced by the positive control and multiplied by 100 to calculate the % receptor bound to the well in the presence of the inhibitor. […]
1. […] The cells were washed three times with TBS without Ca, counted and the volume adjusted to 1.9×10^6 /ml in 1% BSA-TBS Ca just prior to use. […]

Structure (SMILES)	inhibition of the binding of sLe^x to P-selectin [1]	inhibition of the binding of sLe^x to L-selectin [2]	inhibitory effects in the Stamper-Woodruff assay (cell adhesion) [3]	inhibition of the binding of sLe^x to P-selectin in the HL-60 assay [4]
C[C@@H]1O[C@@H](CC(=O)N2CCC[C@H]2C(=O)N[C@@H](Cc2ccccc2)C(=O)O)[C@@H](O)[C@H](O)[C@@H]1O [#1, N-[(1-deoxy-α-L-fucopyranosyl)acetyl]-L-proline-L-phenylalanine]	inhibit the binding of sLe^x to P-selectin	inhibit the binding of sLe^x to L-selectin	inhibitory effects	inhibit the binding of sLe^x to P-selectin
C[C@H](NC(=O)C[C@@H]1O[C@@H](C)[C@@H](O)[C@@H](O)[C@@H]1O)C(=O)N1CCC[C@H]1C(=O)N[C@@H](Cc1ccccc1)C(=O)O [#2, N-[(1-deoxy-α-L-fucopyranosyl)acetyl]-L-alanine-L-proline-L-phenylalanine]		inhibit the binding of sLe^x to L-selectin	inhibitory effects	inhibit the binding of sLe^x to P-selectin
C[C@@H]1O[C@@H](CC(=O)N[C@@H](CCCCNC(=O)OC(C)(C)C)C(=O)O)[C@@H](O)[C@H](O)[C@@H]1O [#3, N-ω-t-butoxylcarbonyl-N-α-[(1-deoxy-α-L-fucopyranosyl)acetyl]-L-lysine]	inhibit the binding of sLe^x to P-selectin	inhibit the binding of sLe^x to L-selectin	inhibitory effects	
C[C@@H]1O[C@@H](CCCC(=O)N2CCC[C@H]2C(=O)N[C@@H](Cc2ccccc2)C(=O)O)[C@@H](O)[C@H](O)[C@@H]1O [#4, N-[4-(1-deoxy-α-L-fucopyranosyl)n-butanoyl]-L-proline-L-phenylalanine]	inhibit the binding of sLe^x to P-selectin	inhibit the binding of sLe^x to L-selectin	inhibitory effects	
C[C@@H]1O[C@@H](CC(=O)N2CCC[C@H]2C(=O)N[C@H](C(=O)O)c2ccccc2)[C@@H](O)[C@H](O)[C@@H]1O [#5, N-[(1-deoxy-α-L-fucopyranosyl)acetyl]-L-proline-L-phenylglycine]	inhibit the binding of sLe^x to P-selectin	inhibit the binding of sLe^x to L-selectin	inhibitory effects	
CC1OC(CCCC(=O)NC(Cc2ccccc2)C(=O)O)C(O)C(O)C1O [#6, N-[4-(1-deoxy-α-L-fucopyranosyl)n-butanoyl]-L-phenylalanine]		inhibit the binding of sLe^x to L-selectin		
